In PMC9607427, “Novel 7-Chloro-(4-thioalkylquinoline) Derivatives: Synthesis and Antiproliferative Activity through Inducing Apoptosis and DNA/RNA Damage” (Pharmaceuticals, 2022) one finds melting point data, which are given here for 41 compounds.

The melting point is the temperature of the solid-liquid transition. For the compound `COc1ccc(C(=O)OCCSc2ccnc3cc(Cl)ccc23)cc1` [Compound 5, 2-[(7-Chloroquinolin-4-yl)sulfanyl]ethyl-4-methoxybenzoate], the melting point lay in the range of 116 to 118 °C.
In the case of `COc1cccc(C(=O)OCCSc2ccnc3cc(Cl)ccc23)c1OC` [Compound 6, 2-[(7-Chloroquinolin-4-yl)sulfanyl]ethyl 2,3-dimethoxybenzoate] it was 108 to 109 °C; in that of `COc1ccc(C(=O)OCCSc2ccnc3cc(Cl)ccc23)c(OC)c1` [Compound 7, 2-[(7-Chloroquinolin-4-yl)sulfanyl]ethyl 2,4-dimethoxybenzoate], 107 to 108 °C; in that of `COc1ccc(OC)c(C(=O)OCCSc2ccnc3cc(Cl)ccc23)c1` [Compound 8, 2-[(7-Chloroquinolin-4-yl)sulfanyl]ethyl-2,5-dimethoxybenzoate], 98 to 100 °C.
In the case of `COc1cccc(OC)c1C(=O)OCCSc1ccnc2cc(Cl)ccc12` [Compound 9, 2-[(7-Chloroquinolin-4-yl)sulfanyl]ethyl 2,6-dimethoxybenzoate] it was 116 to 118 °C; in that of `COc1ccc(C(=O)OCCSc2ccnc3cc(Cl)ccc23)cc1OC` [Compound 10, 2-[(7-Chloroquinolin-4-yl)sulfanyl]ethyl 3,4-dimethoxybenzoate], 109 to 110 °C.
Take `COc1cc(OC)cc(C(=O)OCCSc2ccnc3cc(Cl)ccc23)c1` [Compound 11, 2-[(7-Chloroquinolin-4-yl)sulfanyl]ethyl 3,5-dimethoxybenzoate]: the melting point lay within 100 to 102 °C.
The result for `COc1ccc(C(=O)OCCSc2ccnc3cc(Cl)ccc23)c(OC)c1OC` [Compound 12, 2-[(7-Chloroquinolin-4-yl)sulfanyl]ethyl 2,3,4-trimethoxybenzoate] reads 94 to 96 °C; that for `COc1cc(OC)c(C(=O)OCCSc2ccnc3cc(Cl)ccc23)cc1OC` [Compound 13, 2-[(7-Chloroquinolin-4-yl)sulfanyl]ethyl 2,4,5-trimethoxybenzoate], 134 to 135 °C.
Regarding `COc1cc(C(=O)OCCSc2ccnc3cc(Cl)ccc23)cc(OC)c1OC` [Compound 14, 2-[(7-Chloroquinolin-4-yl)sulfanyl]ethyl 3,4,5-trimethoxybenzoate], the melting point lay within 139 to 140 °C.
The compound `O=C(OCCSc1ccnc2cc(Cl)ccc12)c1ccccc1Cl` [Compound 15, 2-[(7-Chloroquinolin-4-yl)sulfanyl]ethyl 2-chlorobenzoate] had a melting point of 108 °C.
The result for `O=C(OCCSc1ccnc2cc(Cl)ccc12)c1cccc(Cl)c1` [Compound 16, 2-[(7-Chloroquinolin-4-yl)sulfanyl]ethyl 3-chlorobenzoate] reads 94 to 96 °C.
In the case of `COc1ccc(C(=O)OCCSc2ccnc3cc(Cl)ccc23)cc1[N+](=O)[O-]` [Compound 17, 2-[(7-Chloroquinolin-4-yl)sulfanyl]ethyl 4-methoxy-3-nitrobenzoate] it was 171 to 173 °C.
In the case of `Cc1ccc([N+](=O)[O-])c(C(=O)OCCSc2ccnc3cc(Cl)ccc23)c1` [Compound 18, 2-[(7-Chloroquinolin-4-yl)sulfanyl]ethyl 5-methyl-2-nitrobenzoate] it was 93 to 95 °C.
As for `Cc1cc(C)cc(C(=O)OCCSc2ccnc3cc(Cl)ccc23)c1` [Compound 19, 2-[(7-Chloroquinolin-4-yl)sulfanyl]ethyl 3,5-dimethylbenzoate], the melting point was in the range of 102 to 104 °C.
The result for `O=C(OCCSc1ccnc2cc(Cl)ccc12)c1ccc(C(F)(F)F)cc1` [Compound 20, 2-[(7-Chloroquinolin-4-yl)sulfanyl]ethyl 4-(trifluoromethyl)benzoate] reads 134 to 136 °C; that for `CC(C)(C)c1ccc(C(=O)OCCSc2ccnc3cc(Cl)ccc23)cc1` [Compound 21, 2-[(7-Chloroquinolin-4-yl)sulfanyl]ethyl-4-tert-butylbenzoate], 120 to 122 °C; that for `COc1ccccc1C(=O)OCCSc1ccnc2cc(Cl)ccc12` [Compound 22, 2-[(7-Chloroquinolin-4-yl)sulfanyl]ethyl-2-methoxybenzoate], 98 to 99 °C.
The result for `COc1ccc(C(=O)OCCCSc2ccnc3cc(Cl)ccc23)cc1` [Compound 23, 3-[(7-Chloroquinolin-4-yl)sulfanyl]propyl-4-methoxybenzoate] reads 106 to 108 °C; that for `COc1cccc(C(=O)OCCCSc2ccnc3cc(Cl)ccc23)c1OC` [Compound 24, 3-[(7-Chloroquinolin-4-yl)sulfanyl]propyl-2,3-dimethoxybenzoate], 78 to 80 °C.
Consider `COc1ccc(C(=O)OCCCSc2ccnc3cc(Cl)ccc23)c(OC)c1` [Compound 25, 3-[(7-Chloroquinolin-4-yl)sulfanyl]propyl-2,4-dimethoxybenzoate], for which the melting point was in the range of 74 to 76 °C.
Regarding `COc1ccc(OC)c(C(=O)OCCCSc2ccnc3cc(Cl)ccc23)c1` [Compound 26, 3-[(7-Chloroquinolin-4-yl)sulfanyl]propyl-2,5-dimethoxybenzoate], the melting point was 97 to 98 °C.
Regarding `COc1cc(OC)cc(C(=O)OCCCSc2ccnc3cc(Cl)ccc23)c1` [Compound 27, 3-[(7-Chloroquinolin-4-yl)sulfanyl]propyl-3,5-dimethoxybenzoate], the melting point worked out at 148 °C.
`COc1ccc(C(=O)OCCCSc2ccnc3cc(Cl)ccc23)c(OC)c1OC` [Compound 28, 3-[(7-Chloroquinolin-4-yl)sulfanyl]propyl-2,3,4-trimethoxybenzoate] displayed a melting point of 84 °C.
Take `COc1cc(OC)c(C(=O)OCCCSc2ccnc3cc(Cl)ccc23)cc1OC` [Compound 29, 3-[(7-Chloroquinolin-4-yl)sulfanyl]propyl-2,4,5-trimethoxybenzoate]: the melting point lay in the range of 118 to 120 °C.
The result for `COc1cc(C(=O)OCCCSc2ccnc3cc(Cl)ccc23)cc(OC)c1OC` [Compound 30, 3-[(7-Chloroquinolin-4-yl)sulfanyl]propyl-3,4,5-trimethoxybenzoate] reads 98 to 100 °C.
In the case of `COc1ccccc1C(=O)OCCCSc1ccnc2cc(Cl)ccc12` [Compound 31, 3-[(7-Chloroquinolin-4-yl)sulfanyl]propyl-2-methoxybenzoate] it was 95 to 97 °C; in that of `O=C(OCCCSc1ccnc2cc(Cl)ccc12)c1ccccc1Cl` [Compound 32, 3-[(7-Chloroquinolin-4-yl)sulfanyl]propyl-2-chlorobenzoate], 100 to 102 °C.
In the case of `O=C(OCCCSc1ccnc2cc(Cl)ccc12)c1cccc(Cl)c1` [Compound 33, 3-[(7-Chloroquinolin-4-yl)sulfanyl]propyl-3-chlorobenzoate] it was 96 to 98 °C; in that of `O=C(OCCCSc1ccnc2cc(Cl)ccc12)c1ccc(Cl)cc1Cl` [Compound 34, 3-[(7-Chloroquinolin-4-yl)sulfanyl]propyl-2,4-dichlorobenzoate], 88 to 89 °C; in that of `COc1ccc(C(=O)OCCCSc2ccnc3cc(Cl)ccc23)cc1[N+](=O)[O-]` [Compound 35, 3-[(7-Chloroquinolin-4-yl)sulfanyl]propyl-4-methoxy-3-nitrobenzoate], 138 to 140 °C.
For `Cc1ccc([N+](=O)[O-])c(C(=O)OCCCSc2ccnc3cc(Cl)ccc23)c1` [Compound 36, 3-[(7-Chloroquinolin-4-yl)sulfanyl]propyl-5-methyl-2-nitrobenzoate], the melting point lay within 91 to 92 °C.
`Cc1cc(C)cc(C(=O)OCCCSc2ccnc3cc(Cl)ccc23)c1` [Compound 37, 3-[(7-Chloroquinolin-4-yl)sulfanyl]propyl-3,5-dimethylbenzoate] gave a melting point of 136 to 138 °C.
In the case of `O=C(OCCCSc1ccnc2cc(Cl)ccc12)c1ccc(C(F)(F)F)cc1` [Compound 38, 3-[(7-Chloroquinolin-4-yl)sulfanyl]propyl-4-(trifluoromethyl)benzoate] it was 122 to 124 °C; in that of `CC(C)(C)c1ccc(C(=O)OCCCSc2ccnc3cc(Cl)ccc23)cc1` [Compound 39, 3-[(7-Chloroquinolin-4-yl)sulfanyl]propyl-4-tert-butylbenzoate], 88 to 90 °C.
The result for `O=C(OCCCSc1ccnc2cc(Cl)ccc12)c1ccccc1F` [Compound 40, 3-[(7-Chloroquinolin-4-yl)sulfanyl]propyl-2-fluorobenzoate] reads 112 to 113 °C; that for `COc1ccc(C(=O)OCC[S+]([O-])c2ccnc3cc(Cl)ccc23)cc1` (centres unmarked) [Compound 42, 2-[(7-Chloroquinolin-4-yl)sulfinyl]ethyl-4-methoxybenzoate], 126 to 128 °C.
The result for `COc1cccc(C(=O)OCC[S+]([O-])c2ccnc3cc(Cl)ccc23)c1OC` (centres unmarked) [Compound 43, 2-[(7-Chloroquinolin-4-yl)sulfinyl]ethyl-2,3-dimethoxybenzoate] reads 110 °C; that for `COc1ccc(OC)c(C(=O)OCC[S+]([O-])c2ccnc3cc(Cl)ccc23)c1` (centres unmarked) [Compound 44, 2-[(7-Chloroquinolin-4-yl)sulfinyl]ethyl-2,5-dimethoxybenzoate], 112 to 113 °C.
As for `COc1cc(OC)c(C(=O)OCC[S+]([O-])c2ccnc3cc(Cl)ccc23)cc1OC` (centres unmarked) [Compound 45, 2-[(7-Chloroquinolin-4-yl)sulfinyl]ethyl-2,4,5-trimethoxybenzoate], the melting point fell in the range of 151 to 153 °C.
In turn, `COc1cc(C(=O)OCC[S+]([O-])c2ccnc3cc(Cl)ccc23)cc(OC)c1OC` (centres unmarked) [Compound 46, 2-[(7-Chloroquinolin-4-yl)sulfinyl]ethyl-3,4,5-trimethoxybenzoate] registered a melting point of 144 to 146 °C.
